For this assay, the target named is human APJ receptor (Homo sapiens (Human), UniProt P35414). Put plainly: biochemical. The following applies: read-out: Activity hAPJ SPA EC50 IP. It is filed as biochemical. In short, it runs like this: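 Membranes from CHO cells stably expressing cloned human APJ were incubated with WGA SPA beads in 20 mM HEPES pH 7.5, 5 mM MgCl2, 0.1% BSA, 200 mM NaCl and 3 μM GDP. Reaction started with 0.2 nM [35S]GTPγS ± ligands, 90 min at RT. EC50 obtained by non-linear regression as mean of independent experiments.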
Sequence of human APJ receptor (P35414 whole entry): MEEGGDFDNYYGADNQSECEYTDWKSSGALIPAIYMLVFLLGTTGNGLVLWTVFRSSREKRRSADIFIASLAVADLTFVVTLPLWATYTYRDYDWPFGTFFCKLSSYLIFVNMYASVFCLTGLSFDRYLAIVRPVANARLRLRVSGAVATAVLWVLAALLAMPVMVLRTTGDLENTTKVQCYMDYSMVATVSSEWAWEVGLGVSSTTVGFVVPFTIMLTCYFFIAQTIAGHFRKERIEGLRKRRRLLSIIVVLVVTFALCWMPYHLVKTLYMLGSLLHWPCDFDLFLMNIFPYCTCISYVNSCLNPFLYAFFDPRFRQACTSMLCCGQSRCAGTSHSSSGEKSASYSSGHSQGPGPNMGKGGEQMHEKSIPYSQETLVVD

On to `COc1cccc(OC)c1-n1c(NS(=O)(=O)C[C@H](O)c2ccc(C#N)cc2S(C)(=O)=O)nnc1-c1cncc(C)c1` (single isomer, unassigned) [Example 491.0, (2R)-2-(4-cyano-2-(methylsulfonyl)phenyl)-N-(4-(2,6-dimethoxyphenyl)-5-(5-methyl-3-pyridinyl)-4H-1,2,4-triazol-3-yl)-2-hydroxyethanesulfonamide or (2S)-2-(4-cyano-2-(methylsulfonyl)phenyl)-N-(4-(2,6-dimethoxyphenyl)-5-(5-methyl-3-pyridinyl)-4H-1,2,4-triazol-3-yl)-2-hydroxyethanesulfonamide], for which the concentration giving a half-maximal response (EC50) turned out to be 0.33 nM. To `COc1cccc(OC)c1-n1c(NS(=O)(=O)C[C@H](O)c2ccc(C#N)cc2S(C)(=O)=O)nnc1-c1cncc(C)c1` (single isomer, unassigned) [Example 492.0, (2R)-2-(4-cyano-2-(methylsulfonyl)phenyl)-N-(4-(2,6-dimethoxyphenyl)-5-(5-methyl-3-pyridinyl)-4H-1,2,4-triazol-3-yl)-2-hydroxyethanesulfonamide or (2S)-2-(4-cyano-2-(methylsulfonyl)phenyl)-N-(4-(2,6-dimethoxyphenyl)-5-(5-methyl-3-pyridinyl)-4H-1,2,4-triazol-3-yl)-2-hydroxyethanesulfonamide] belongs 0.61 nM.

Turning to `COc1cccc(OC)c1-n1c(NS(=O)(=O)[C@H](C)[C@@H](OC)c2ccc(Cl)cn2)nnc1-c1cccnc1` (single isomer, unassigned) [Example 530.0, (1S,2R)-1-(5-chloro-2-pyridinyl)-N-(4-(2,6-dimethoxyphenyl)-5-(3-pyridinyl)-4H-1,2,4-triazol-3-yl)-1-methoxy-2-propanesulfonamide or (1R,2S)-1-(5-chloro-2-pyridinyl)-N-(4-(2,6-dimethoxyphenyl)-5-(3-pyridinyl)-4H-1,2,4-triazol-3-yl)-1-methoxy-2-propanesulfonamide], the EC50 worked out at 48.5 nM.

In the case of `COc1cccc(OC)c1-n1c(NS(=O)(=O)[C@@H](C)[C@@](C)(F)c2ncc(C#N)cn2)nnc1-c1cncc(C)c1` (single isomer, unassigned) [Example 537.0], the EC50 was found to be 57 nM. As for `COc1cccc(OC)c1-n1c(NS(=O)(=O)[C@@H](C)[C@@](C)(F)c2ncc(C#N)cn2)nnc1-c1cncc(C)c1` (single isomer, unassigned) [Example 538.0], the EC50 worked out at 4.5 nM. For the compound `COc1cccc(OC)c1-n1c(NS(=O)(=O)[C@H](C)[C@@H](OC)c2ccc(C#N)cn2)nnc1-c1cncc(C)c1` (single isomer, unassigned) [Example 552.0], the EC50 came out at 0.28 nM. With `COc1cccc(OC)c1-n1c(NS(=O)(=O)[C@H](C)[C@@H](OC)c2ccc(C#N)cn2)nnc1-c1cncc(C)c1` (single isomer, unassigned) [Example 553.0], the EC50 was found to be 41 nM. With `COc1cccc(OC)c1-n1c(NS(=O)(=O)[C@H](C)[C@@H](OC)c2ccc(C#N)cn2)nnc1-c1cncc(C)c1` (single isomer, unassigned) [Example 554.0], the EC50 was found to be 2.7 nM. Then `COc1cccc(OC)c1-n1c(NS(=O)(=O)[C@H](C)[C@@H](OC)c2ccc(C#N)cn2)nnc1-c1cncc(C)c1` (single isomer, unassigned) [Example 555.0], with 41 nM. Then `COc1cccc(OC)c1-n1c(NS(=O)(=O)[C@H](C)[C@@H](OC)c2ncc(Cl)cn2)nnc1-c1cncc(C)c1` (single isomer, unassigned) [Example 558.0], with 30 nM; and `COc1cccc(OC)c1-n1c(NS(=O)(=O)[C@H](C)[C@@H](OC)c2ncc(Cl)cn2)nnc1-c1cncc(C)c1` (single isomer, unassigned) [Example 559.0], with 120 nM; and `COc1cccc(OC)c1-n1c(NS(=O)(=O)[C@H](C)[C@@H](OC)c2ncc(Cl)cn2)nnc1-c1cncc(C)c1` (single isomer, unassigned) [Example 560.0], with 0.88 nM. Regarding `CCO[C@@H](c1cnc(C)cn1)[C@@H](C)S(=O)(=O)Nc1nnc(-c2cncc(C)c2)n1-c1c(OC)cccc1OC` (single isomer, unassigned) [Example 565.0, (1S,2R)—N-(4-(2,6-dimethoxyphenyl)-5-(5-methyl-3-pyridinyl)-4H-1,2,4-triazol-3-yl)-1-ethoxy-1-(5-methyl-2-pyrazinyl)-2-propanesulfonamide or (1R,2S)—N-(4-(2,6-dimethoxyphenyl)-5-(5-methyl-3-pyridinyl)-4H-1,2,4-triazol-3-yl)-1-ethoxy-1-(5-methyl-2-pyrazinyl)-2-propanesulfonamide], the EC50 stood at 100 nM.

Take `CCO[C@@H](c1cnc(C)cn1)[C@@H](C)S(=O)(=O)Nc1nnc(-c2cncc(C)c2)n1-c1c(OC)cccc1OC` (single isomer, unassigned) [Example 566.0, (1S,2R)—N-(4-(2,6-dimethoxyphenyl)-5-(5-methyl-3-pyridinyl)-4H-1,2,4-triazol-3-yl)-1-ethoxy-1-(5-methyl-2-pyrazinyl)-2-propanesulfonamide or (1R,2S)—N-(4-(2,6-dimethoxyphenyl)-5-(5-methyl-3-pyridinyl)-4H-1,2,4-triazol-3-yl)-1-ethoxy-1-(5-methyl-2-pyrazinyl)-2-propanesulfonamide]: the EC50 amounted to 62 nM. `COc1cccc(OC)c1-n1c(NS(=O)(=O)[C@H](C)[C@@H](O)c2cnc(C)cn2)nnc1-c1cncc(C)c1` (single isomer, unassigned) [Example 568.0, (1S,2R)—N-(4-(2,6-dimethoxyphenyl)-5-(5-methyl-3-pyridinyl)-4H-1,2,4-triazol-3-yl)-1-hydroxy-1-(5-methyl-2-pyrazinyl)-2-propanesulfonamide or (1R,2S)—N-(4-(2,6-dimethoxyphenyl)-5-(5-methyl-3-pyridinyl)-4H-1,2,4-triazol-3-yl)-1-hydroxy-1-(5-methyl-2-pyrazinyl)-2-propanesulfonamide]: the EC50 was 7.1 nM.

Take `COc1cccc(OC)c1-n1c(NS(=O)(=O)[C@H](C)[C@@H](O)c2cnc(C)cn2)nnc1-c1cncc(C)c1` (single isomer, unassigned) [Example 569.0, (1S,2R)—N-(4-(2,6-dimethoxyphenyl)-5-(5-methyl-3-pyridinyl)-4H-1,2,4-triazol-3-yl)-1-hydroxy-1-(5-methyl-2-pyrazinyl)-2-propanesulfonamide or (1R,2S)—N-(4-(2,6-dimethoxyphenyl)-5-(5-methyl-3-pyridinyl)-4H-1,2,4-triazol-3-yl)-1-hydroxy-1-(5-methyl-2-pyrazinyl)-2-propanesulfonamide]: the EC50 was found to be 0.26 nM. For the compound `COc1cccc(-c2nnc(NS(=O)(=O)[C@@H](C)[C@H](O)c3cnc(C)cn3)n2-c2c(OC)cccc2OC)n1` (single isomer, unassigned) [Example 577.0, (1R,2S)—N-(4-(2,6-dimethoxyphenyl)-5-(6-methoxy-2-pyridinyl)-4H-1,2,4-triazol-3-yl)-1-hydroxy-1-(5-methyl-2-pyrazinyl)-2-propanesulfonamide or (1S,2R)—N-(4-(2,6-dimethoxyphenyl)-5-(6-methoxy-2-pyridinyl)-4H-1,2,4-triazol-3-yl)-1-hydroxy-1-(5-methyl-2-pyrazinyl)-2-propanesulfonamide], the EC50 came to 0.24 nM.

Turning to `COc1cccc(-c2nnc(NS(=O)(=O)[C@@H](C)[C@H](O)c3cnc(C)cn3)n2-c2c(OC)cccc2OC)n1` (single isomer, unassigned) [Example 578.0, (1R,2S)—N-(4-(2,6-dimethoxyphenyl)-5-(6-methoxy-2-pyridinyl)-4H-1,2,4-triazol-3-yl)-1-hydroxy-1-(5-methyl-2-pyrazinyl)-2-propanesulfonamide or (1S,2R)—N-(4-(2,6-dimethoxyphenyl)-5-(6-methoxy-2-pyridinyl)-4H-1,2,4-triazol-3-yl)-1-hydroxy-1-(5-methyl-2-pyrazinyl)-2-propanesulfonamide], the EC50 was 2.7 nM. Then `COc1cccc(-c2nnc(NS(=O)(=O)[C@@H](C)[C@@H](O)c3ncc(C)cn3)n2-c2c(OC)cccc2OC)n1` (single isomer, unassigned) [Example 583.0], with 0.19 nM; and `CCO[C@@H](c1ncc(Cl)cn1)[C@H](C)S(=O)(=O)Nc1nnc(-c2cncc(C)c2)n1-c1c(OC)cccc1OC` (single isomer, unassigned) [Example 609.0], with 9.4 nM. Take `CCO[C@@H](c1ncc(Cl)cn1)[C@H](C)S(=O)(=O)Nc1nnc(-c2cncc(C)c2)n1-c1c(OC)cccc1OC` (single isomer, unassigned) [Example 611.0]: the EC50 was 0.19 nM. To `CCO[C@@H](c1ncc(Cl)cn1)[C@H](C)S(=O)(=O)Nc1nnc(-c2cncc(C)c2)n1-c1c(OC)cccc1OC` (single isomer, unassigned) [Example 612.0] belongs 13 nM; to `COc1cccc(OC)c1-n1c(NS(=O)(=O)[C@@H](C)[C@H](OC)c2ccc(F)cc2C#N)nnc1-c1cncc(C)c1` (single isomer, unassigned) [Example 623.0], 130 nM. Then `COc1cccc(OC)c1-n1c(NS(=O)(=O)[C@@H](C)[C@@H](OC(C)C)c2ncc(C)cn2)nnc1-c1cccnc1` (single isomer, unassigned) [Example 627.0, (1R,2R)-N-(4-(2,6-dimethoxyphenyl)-5-(pyridin-3-yl)-4H-1,2,4-triazol-3-yl)-1-isopropoxy-1-(5-methylpyrimidin-2-yl)propane-2-sulfonamide or (1S,2S)-N-(4-(2,6-dimethoxyphenyl)-5-(pyridin-3-yl)-4H-1,2,4-triazol-3-yl)-1-isopropoxy-1-(5-methylpyrimidin-2-yl)propane-2-sulfonamide], with 1.1 nM; and `COc1cccc(OC)c1-n1c(NS(=O)(=O)[C@@H](C)[C@@H](C)n2cc(C)cn2)nnc1-c1cncc(C)c1` (single isomer, unassigned) [Example 650.0], with 39 nM. To `COc1cccc(OC)c1-n1c(NS(=O)(=O)[C@@H](C)[C@@H](C)n2cc(C)cn2)nnc1-c1cncc(C)c1` (single isomer, unassigned) [Example 651.0] belongs 85 nM.

Usually EC50 stands for the concentration giving half of the maximal effect.

These data come from US10058550B2, “Methods of treating heart failure” (priority 2015, dated 2018).
